3 molecules from BigSolDB 2.1 can be followed below.

The conditions of this data set: in n-octanol.

By solubility (mole fraction) is commonly meant solubility expressed as the solute's share of all molecules. For `CCn1cc(C(=O)O)c(=O)c2cnc(N3CCNCC3)nc21`, the solubility (mole fraction) by setting is: (293.15 K) 9.14e-07; (298.15 K) 1.2e-06; (303.15 K) 1.57e-06; (308.15 K) 2.03e-06; (313.15 K) 2.6e-06; (318.15 K) 3.25e-06. Further, the solubility (mole fraction) is, setting by setting: (323.15 K) 4.05e-06; (328.15 K) 4.97e-06; (333.15 K) 6.02e-06.

With `CCn1cc(C(=O)O)c(=O)c2cc(F)c(N3CCNCC3)cc21`, the solubility (mole fraction) amounted to 5.17e-05 (293.15 K); 6.62e-05 (298.15 K); 8.54e-05 (303.15 K); 0.000108 (308.15 K); 0.00014 (313.15 K); 0.000177 (318.15 K). The solubility (mole fraction) (323.15 K) came out at 0.000224, the solubility (mole fraction) (328.15 K) was determined as 0.000284 and the solubility (mole fraction) (333.15 K) came out at 0.000352.

As to `CCn1cc(C(=O)O)c(=O)c2cc(F)c(N3CCNC(C)C3)c(F)c21` (configuration not stated), the solubility (mole fraction) (293.15 K) stood at 2.17e-06; the solubility (mole fraction) (298.15 K) amounted to 2.76e-06; the solubility (mole fraction) (303.15 K) was 3.55e-06; the solubility (mole fraction) (308.15 K) was 4.58e-06; the solubility (mole fraction) (313.15 K) was found to be 5.88e-06; the solubility (mole fraction) (318.15 K) was found to be 7.63e-06. Besides, the solubility (mole fraction) by setting is: (323.15 K) 9.91e-06; (328.15 K) 1.3e-05; (333.15 K) 1.68e-05.
